In one series the target is T1, OX1R (Homo sapiens, UniProt O43613).
T1 sequence (O43613 1-425): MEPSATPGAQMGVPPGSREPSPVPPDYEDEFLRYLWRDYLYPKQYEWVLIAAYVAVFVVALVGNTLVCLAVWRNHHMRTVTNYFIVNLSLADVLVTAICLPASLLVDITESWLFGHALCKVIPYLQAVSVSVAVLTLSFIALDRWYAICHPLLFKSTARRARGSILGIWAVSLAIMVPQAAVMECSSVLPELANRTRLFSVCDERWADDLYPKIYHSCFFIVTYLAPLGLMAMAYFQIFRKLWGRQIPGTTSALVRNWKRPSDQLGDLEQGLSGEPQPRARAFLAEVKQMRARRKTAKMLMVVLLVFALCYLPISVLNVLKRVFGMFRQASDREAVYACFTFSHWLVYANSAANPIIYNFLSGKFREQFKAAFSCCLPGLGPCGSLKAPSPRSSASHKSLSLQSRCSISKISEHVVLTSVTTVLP
As to the kind of experiment: OX1R potency as described in WO2016/034882. Conditions: for IC50: read-out: OX1R IC50 (corresponds to pIC50) (converted).

Series [1] deals with T2, OX2R (Homo sapiens, UniProt O43614).
T2 sequence (O43614 1-444): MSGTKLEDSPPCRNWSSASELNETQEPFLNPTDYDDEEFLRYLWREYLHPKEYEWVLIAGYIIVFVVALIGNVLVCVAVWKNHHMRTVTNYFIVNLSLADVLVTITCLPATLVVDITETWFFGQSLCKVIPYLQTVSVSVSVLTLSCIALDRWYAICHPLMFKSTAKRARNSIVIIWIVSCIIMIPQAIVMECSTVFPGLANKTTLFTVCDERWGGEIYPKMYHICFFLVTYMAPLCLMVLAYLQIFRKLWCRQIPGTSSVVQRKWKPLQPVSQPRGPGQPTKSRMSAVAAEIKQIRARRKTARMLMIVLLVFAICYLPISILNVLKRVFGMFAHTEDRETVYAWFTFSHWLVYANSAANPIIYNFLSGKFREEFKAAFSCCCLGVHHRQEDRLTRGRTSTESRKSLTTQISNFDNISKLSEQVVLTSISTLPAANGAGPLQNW
As to the kind of experiment: OX2R potency as described in WO2016/034882. Conditions: read-out: OX2R IC50 (corresponds to pIC50) (converted).

The target of series [2] is T2, OX2R. Particulars: cited from earlier work.
In another series the target is T3, human Orexin 1 receptor (Homo sapiens, UniProt O43613).
T3 construct: stably expressing the full-length human Orexin 1 receptor; expressed in transfected cells; host or cells: CHO-K1 (CHO-K1/hOX1), co-expressing aequorin
T3 sequence (O43613 1-425): T1 sequence (O43613 1-425)
Put plainly: Assay A: OX1R IP1 (in vitro OX1R potency). Type of series: cell-based. Conditions: for Kb: Table 3.

The target of the next series is T4, human orexin 2 receptor (Homo sapiens, UniProt O43614).
T4 construct: stably expressing the full-length human orexin 2 receptor; expressed in transfected cells; host or cells: CHO-K1 (CHO-K1/hOX2), co-expressing aequorin
T4 sequence (O43614 1-444): T2 sequence (O43614 1-444)
Put plainly: Assay B: OX2R IP1 (in vitro OX2R potency). Type of series: cell-based. Particulars: Table 3; 0.5 nM Orexin A concentration. The text has this: Activation of the orexin receptors expressed in cell lines results in an increase in intracellular IP3 concentration. IP1, a downstream metabolite of IP3, accumulates in cells following receptor activation and is stable in the presence of LiCl. Using Homogeneous Time-Resolved Fluorescence technology with Lumi4-Tb cryptate (commercially available from Cisbio Bioassay.) and a suitable fluorescence plate reader. This functional response is detectable and quantifiable as described in Trinquet et al. Anal. […] Curr. Chem. Genomics 2009, 3, 22-32. This technique is used to characterize pharmacological modification of the orexin receptors. B. In Vitro Testing of OX2R Potency: OX2R IP1 IP1 measurements are performed in CHO-K1 cells stably expressing the full-length human orexin 2 receptor and the aequorin photoprotein. Cells are cultivated in Ham's nutrient mixture F12 medium with 10% fetal calf serum, in a 37° C., 95% humidity and 5% CO2 incubator. The CHO-K1/hOX2 cell mass is expanded to larger cell numbers. The cells are obtained as frozen cells in cryo-vials and stored until use at -150° C. The viability of the cells after thawing is >90%. In preparation for the assay, 24 hours before the assay, the cells are thawed at 37° C. and immediately diluted with cell culture medium. After centrifugation, the cell pellet is resuspended in medium and then distributed into the assay plates with a density of 5000 cells/25 μL per well. The plates are incubated for one hour at room temperature to reduce edge effects before they are incubated for 24 hours at 37° C./5% CO2. […] On the day of the assay, cells in the plate are washed twice with 60 μL assay buffer (20 μL buffer remained in the wells after washing), followed by adding 5 μL per well of compounds diluted in assay buffer. […] The assay plate is incubated for 60 minutes at 37° C. Then 5 μL per well of Anti-IP1-Cryptate Tb solution and 5 μL per well of IP1-d2 dilution are added to all well of the plate and the plate is incubated for a further 60 minutes light protected at room temperature. […] The ratio between the emission at 665 nm and 615 is calculated by the reader. […] AssayExplorer (Accelrys). In order to establish an agonist concentration independent parameter, Kb values are calculated using the following equation: […] Sci. 1993, 14(4), 110-112).

Series [3] is described as follows: Assay C: Human MST t1/2 (stability in human liver microsomes). Type of series: in vitro ADME. Particulars: human liver microsomes. A general note: Liver microsomes are a subcellular fraction often used to study metabolism.

Like-named read-outs stand apart in the source and are kept apart here.

In the case of `CC[C@@H](CNc1ncc(C(F)(F)F)cn1)N(C)C(=O)c1nc(C)ccc1-n1nccn1` [Ex 46 in WO2016/ 034882], the “OX2R IC50/OX1R IC50” value is 390 at OX1R (Table 1 of WO2016/034882), more than 312 on OX1R (Table 2 of WO2016/034882) and 3200 on OX1R (Table 3 of WO2016/034882). In addition, the IC50 on OX1R (Table 2 of WO2016/034882) is 32 nM; on OX1R (Table 3 of WO2016/034882), 3.2 nM; at OX2R [1] (Table 1 of WO2016/034882), 7800 nM; at OX2R [1] (Table 3 of WO2016/034882), not below 10000 nM. The “OX2R pIC50” value at OX2R [2] (Table 2 of WO2016/034882) and on OX2R [2] (Table 3 of WO2016/034882) was less than 5.0 throughout.
As to `CC[C@@H](CNc1cnc(C(F)(F)F)cn1)N(CC)C(=O)c1nc(C)ccc1-n1nccn1` [Ex 70 in WO2016/ 034882], the “OX2R Kb/OX1R Kb” value at human Orexin 1 receptor is on record as 319. On human Orexin 1 receptor (Orexin A concentration 50 nM), the Kb stood at 0.135 nM. Besides, the IC50 is 1.6 nM at OX1R (Table 3 of WO2016/034882) and more than 5000 nM on OX2R [1] (Table 3 of WO2016/034882).
`CC[C@@H](CNc1ncc(C(F)(F)F)cn1)N(CC)C(=O)c1nc(C)ccc1-n1nccn1` [Ex 73 in WO2016/ 034882]: the “OX2R pIC50” value on OX2R [2] (Table 3 of WO2016/034882) was less than 6.0.
For the compound `CCN(C(=O)c1cc(F)cnc1-c1nnc(C)o1)[C@@H](C)COc1ccc(C(F)(F)F)cn1` [Example 59], at human Orexin 1 receptor, the “OX2R Kb/OX1R Kb” value came to 214. For the same compound, the Kb at human Orexin 1 receptor (Orexin A concentration 0.5 nM) came out at 31 nM; at human orexin 2 receptor, 6640 nM. This compound displayed a half-life in series [3] of more than 2.17 h.
Take `CCN(C(=O)c1ccc(C)nc1-n1nccn1)[C@@H](C)COc1ncc(C(F)(F)F)cc1F` [Example 60]: the values for the Kb on human Orexin 1 receptor (Orexin A concentration 0.5 nM), on human Orexin 1 receptor (Orexin A concentration 50 nM) and on human orexin 2 receptor were 0.67 nM, 0.66 nM and 882 nM, respectively. For the same compound, in series [3], the half-life was more than 2.17 h.
For the compound `CCN(C(=O)c1cccnc1-n1nccn1)[C@@H](C)COc1ccc(C(F)(F)F)cn1` [Example 61], on human Orexin 1 receptor, the “OX2R Kb/OX1R Kb” value came out at 294. Besides, the Kb was found to be 2.31 nM at human Orexin 1 receptor (Orexin A concentration 0.5 nM) and 678 nM at human orexin 2 receptor. In addition, in series [3], the half-life was more than 2.17 h.
Regarding `CCN(C(=O)c1ncc(C)cc1-n1cccn1)[C@@H](C)COc1ccc(C(F)(F)F)cn1` [Example 64], on human Orexin 1 receptor, the “OX2R Kb/OX1R Kb” value turned out to be 688. Moreover, the figures for the Kb at human Orexin 1 receptor (Orexin A concentration 50 nM) and at human orexin 2 receptor were 0.4 nM and 275 nM, respectively. Besides, the half-life in series [3] worked out at 0.333 h.
Consider `CCN(C(=O)c1cnccc1-n1cccn1)[C@@H](C)COc1ccc(C(F)(F)F)cn1` [Example 69], for which the “OX2R Kb/OX1R Kb” value at human Orexin 1 receptor worked out at 139. The Kb worked out at 2.2 nM at human Orexin 1 receptor (Orexin A concentration 0.5 nM) and 305 nM on human orexin 2 receptor. The half-life in series [3] is 0.217 h.
Turning to `CCN(C(=O)c1cc(F)cnc1-c1ncccn1)[C@@H](C)COc1ccc(C(F)(F)F)cn1` [Example 70], on human Orexin 1 receptor, the “OX2R Kb/OX1R Kb” value is 691. The Kb is 1.5 nM at human Orexin 1 receptor (Orexin A concentration 0.5 nM) and 1040 nM on human orexin 2 receptor. In series [3], this compound had a half-life of more than 2.17 h.
The like results for `CCN(C(=O)c1ncccc1-n1nccn1)[C@@H](C)COc1ccc(Cl)cn1` [Example 71] were, in that order, 113, 3 nM, 339 nM and 1.05 h.
`CCN(C(=O)c1cc(Cl)cnc1-n1nccn1)[C@@H](C)COc1ccc(C(F)(F)F)cn1` [Example 72]: the Kb on human Orexin 1 receptor (Orexin A concentration 0.5 nM) is 0.37 nM; at human Orexin 1 receptor (Orexin A concentration 50 nM), 0.24 nM; on human orexin 2 receptor it was 250 nM. In series [3], this compound returned a half-life of more than 2.17 h.

Usually IC50 stands for the point on the concentration scale where inhibition reaches its midpoint. In general, half-life refers to how long it takes for the measured level to halve. Higher therefore signals slow decline.

The values above are taken from patent US10738031B2, “N-[(heteroaryloxy)propanyl]heteroaryl carboxamides as antagonists of orexin subtype 1 receptor activity” (Boehringer Ingelheim International GmbH, priority 2016, dated 2020).
